Read-outs that look alike come from different tables or passages of the source.
Tested on: HCV proteins in Rep5.1 cells (replicon cell line)
Assay: Inhibitory activity of HCV: cell-based ELISA in replicon cell line Rep5.1 (decrease of HCV proteins)
Design: species or system hepatitis C virus
Summary of the method: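 Rep5.1 replicon cells (5000/well, DMEM-10 with 500 μg/ml G418) were given serially diluted drug 4 h after seeding. After 72 h, cells were fixed in methanol/acetone and HCV proteins detected by cell-based ELISA using replicon-specific patient plasma antibodies. IC50 is the concentration giving 50% protein decrease versus the no-drug control.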

[1] = Hepatitis C virus, 72 h, Rep5.1 cells, 72 hours with drug, concentration at which 50% of HCV proteins was decreased, Table 2, read-out: IC50
[2] = Hepatitis C virus, 72 h, Rep5.1 cells, 72 hours with drug, decrease of HCV proteins measured by HCV antibody, Table 1, read-out: Level (IC50 values classified)
[3] = Rep5.1 cells, 72 hours with drug, concentration at which 50% of HCV proteins was decreased, Table 2, read-out: IC50

O=C(OCc1ccccc1)C1=C(Cc2ccccc2)NC(=S)NC1 [Compound 18, 6-benzyl-2-thioxo-1,2,3,4-tetrahydro-pyrimidine-5-carboxylic acid benzyl ester]
IC50 [1]: 5000 nM
IC50 [2]: 1000 to 10000 nM

O=C(OCCc1ccsc1)C1=CNC(=S)NC1 [Compound 261, 2-thioxo-1,2,3,4-tetrahydro-pyrimidine-5-carboxylic acid 2-thiophen-3-yl-ethyl ester]
IC50 [1]: 800 nM
IC50 [2]: < 1000 nM

CC1=C(C(=O)OCc2ccc(Br)s2)CNC(=S)N1 [Compound 203, 6-methyl-2-thioxo-1,2,3,4-tetrahydro-pyrimidine-5-carboxylic acid 5-bromo-thiophen-2-ylmethyl ester]
IC50 [1]: < 400 nM
IC50 [2]: < 1000 nM

COc1ccc(CCCOC(=O)C2=C(C)NC(=S)NC2)cc1 [Compound 88, 6-methyl-2-thioxo-1,2,3,4-tetrahydro-pyrimidine-5-carboxylic acid 3-(4-methoxy-phenyl)-propyl ester]
IC50 [1]: 700 nM
IC50 [2]: < 1000 nM

CC1=C(C(=O)OCc2ccc(C)cc2C)CNC(=S)N1 [Compound 122, 6-methyl-2-thioxo-1,2,3,4-tetrahydro-pyrimidine-5-carboxylic acid 2,4-dimethyl-benzyl ester]
IC50 [1]: 800 nM
IC50 [2]: < 1000 nM

CC1=C(C(=O)OCc2ccc(-c3cccs3)s2)CNC(=S)N1 [Compound 218, 6-methyl-2-thioxo-1,2,3,4-tetrahydro-pyrimidine-5-carboxylic acid[2,2′]bithiophenyl-5-ylmethyl ester]
IC50 [3]: < 400 nM

CC1=C(C(=O)OCC2CC=CCC2)CNC(=S)N1 (centres unmarked) [3′, 6-methyl-2-thioxo-1,2,3,4-tetrahydro-pyrimidine-5-carboxylic acid cyclohex-3-enylmethyl ester]
IC50 [1]: 700 nM
IC50 [2]: < 1000 nM

CC(=O)OCC1NC(=S)NC(C)=C1C(=O)OCCc1ccsc1 (centres unmarked) [21″, 4-acetoxymethyl-6-methyl-2-thioxo-1,2,3,4-tetrahydro-pyrimidine-5-carboxylic acid 2-thiophen-3-yl-ethyl ester]
IC50 [1]: > 100000 nM
IC50 [2]: > 20000 nM

C=CCN(C)c1ccc(CCOC(=O)C2=C(C)NC(=S)NC2CO)cc1[N+](=O)[O-] (centres unmarked) [96″, 4-Hydroxymethyl-6-methyl-2-thioxo-1,2,3,4-tetrahydro-pyrimidine-5-carboxylic acid 2-[4-(allyl-methyl-amino)-3-nitro-phenyl]-ethyl ester]
IC50 [1]: 900 nM
IC50 [2]: < 1000 nM

CC1=C(C(=O)OC(C)Cc2ccsc2Br)C(CF)NC(=S)N1 (centres unmarked) [27′, 4-fluoromethyl-6-methyl-2-thioxo-1,2,3,4-tetrahydro-pyrimidine-5-carboxylic acid 2-(2-bromo-thiophen-3-yl)-1-methyl-ethyl ester]
IC50 [1]: < 400 nM
IC50 [2]: < 1000 nM

CC1=C(C(=O)OCc2cc(C(F)(F)F)cc(C(F)(F)F)c2)CNC(=S)N1 [Compound 148, 6-methyl-2-thioxo-1,2,3,4-tetrahydro-pyrimidine-5-carboxylic acid 3,5-bis-trifluoromethyl-benzyl ester]
IC50 [1]: < 400 nM
IC50 [2]: < 1000 nM

CCOc1cc(COC(=O)C2=C(C)NC(=S)NC2)cc(OCC)c1 [Compound 150, 6-methyl-2-thioxo-1,2,3,4-tetrahydro-pyrimidine-5-carboxylic acid 3,5-diethoxy-benzyl ester]
IC50 [1]: 1000 nM
IC50 [2]: < 1000 nM

CCc1ccc(CCOC(=O)C2=C(C)NC(=S)NC2)o1 [22′, 6-methyl-2-thioxo-1,2,3,4-tetrahydro-pyrimidine-5-carboxylic acid 2-(5-ethyl-furan-2-yl)-ethyl ester]
IC50 [1]: < 400 nM
IC50 [2]: < 1000 nM

CC(C)=CCOC(=O)C1=C(C)NC(=S)NC1 [Compound 53, 6-methyl-2-thioxo-1,2,3,4-tetrahydro-pyrimidine-5-carboxylic acid 3-methyl-but-2-enyl ester]
IC50 (Hepatitis C virus, 72 h): 6600 nM
IC50 (Hepatitis C virus, 72 h, read-out: Level (IC50 values classified)): 1000 to 10000 nM

CC1=C(C(=O)OCCc2cccc(C)c2)C(CO)NC(=S)N1 (centres unmarked) [64″, 4-hydroxymethyl-6-methyl-2-thioxo-1,2,3,4-tetrahydro-pyrimidine-5-carboxylic acid 2-m-tolyl-ethyl ester]
IC50 [1]: 5500 nM
IC50 [2]: 1000 to 10000 nM

C=CCOCC#CCOC(=O)C1=C(C)NC(=S)NC1 [Compound 245, 6-methyl-2-thioxo-1,2,3,4-tetrahydro-pyrimidine-5-carboxylic acid 4-allyloxy-but-2-inyl ester]
IC50 [3]: 2700 nM

CC1=C(C(=O)OCCc2ccc(Cl)cc2Cl)C(CO)NC(=S)N1 (centres unmarked) [43″, 4-hydroxymethyl-6-methyl-2-thioxo-1,2,3,4-tetrahydro-pyrimidine-5-carboxylic acid 2-(2,4-dichloro-phenyl)-ethyl ester]
IC50 [1]: < 400 nM
IC50 [2]: < 1000 nM

CC1=C(C(=O)O[C@H](C)c2ccccc2)CNC(=S)N1 (racemic) [Compound 26, 6-methyl-2-thioxo-1,2,3,4-tetrahydro-pyrimidine-5-carboxylic acid (R,S)-1-phenyl-ethyl ester]
IC50 [3]: 3000 nM

O=C(OCCc1ccsc1)C1=C(CO)NC(=S)NC1 [67′, 6-hydroxymethyl-2-thioxo-1,2,3,4-tetrahydro-pyrimidine-5-carboxylic acid 2-thiophen-3-yl-ethyl ester]
IC50 [1]: > 100000 nM
IC50 [2]: > 20000 nM

CC1=C(C(=O)OCc2ccccc2S(=O)(=O)CC(C)C)CNC(=S)N1 [Compound 113, 6-methyl-2-thioxo-1,2,3,4-tetrahydro-pyrimidine-5-carboxylic acid 2-(2-methyl-propane-1-sulfonyl)-benzyl ester]
IC50 [1]: > 100000 nM
IC50 [2]: > 20000 nM

CC1=C(C(=O)OCCc2ccc(Cl)c(C(F)(F)F)c2)C(CO)NC(=S)N1 (centres unmarked) [67″, 4-hydroxymethyl-6-methyl-2-thioxo-1,2,3,4-tetrahydro-pyrimidine-5-carboxylic acid 2-(4-chloro-3-trifluoromethyl-phenyl)-ethyl ester]
IC50 [1]: < 400 nM
IC50 [2]: < 1000 nM

CC1=C(C(=O)OCC2(c3ccc(Cl)cc3Cl)CC2)C(CO)NC(=S)N1 (centres unmarked) [61″, 4-hydroxymethyl-6-methyl-2-thioxo-1,2,3,4-tetrahydro-pyrimidine-5-carboxylic acid 1-(2,4-dichloro-phenyl)-cyclopropylmethyl ester]
IC50 [1]: 16000 nM
IC50 [2]: 10000 to 20000 nM

CSc1ccc(CCCOC(=O)C2=C(C)NC(=S)NC2)cc1 [Compound 105, 6-methyl-2-thioxo-1,2,3,4-tetrahydro-pyrimidine-5-carboxylic acid 3-(4-methylsulfanyl-phenyl)-propyl ester]
IC50 [1]: < 400 nM
IC50 [2]: < 1000 nM

CC1=C(C(=O)OCCc2ccsc2)C(C(F)F)NC(=S)N1 (centres unmarked) [80′, 4-difluoromethyl-6-methyl-2-thioxo-1,2,3,4-tetrahydro-pyrimidine-5-carboxylic acid 2-thiophen-3-yl-ethyl ester]
IC50 [1]: 11000 nM
IC50 [2]: 10000 to 20000 nM

CC1=C(C(=O)OCc2ccc(-c3ccc([N+](=O)[O-])cc3)o2)CNC(=S)N1 [Compound 128, 6-methyl-2-thioxo-1,2,3,4-tetrahydro-pyrimidine-5-carboxylic acid 5-(4-nitro-phenyl)-furan-2-ylmethyl ester]
IC50 [1]: 1000 nM
IC50 [2]: < 1000 nM

CC1=C(C(=O)OCc2cc3c(C)snc3s2)CNC(=S)N1 [Compound 213, 6-methyl-2-thioxo-1,2,3,4-tetrahydro-pyrimidine-5-carboxylic acid 3-methyl-thieno[2,3-c]isothiazol-5-ylmethyl ester]
IC50 [1]: 4000 nM
IC50 [2]: 1000 to 10000 nM

O=C(OCCc1ccsc1)C1=CNC(=S)NC1CF (centres unmarked) [Compound 271, 4-fluoromethyl-2-thioxo-1,2,3,4-tetrahydro-pyrimidine-5-carboxylic acid 2-thiophen-3-yl-ethyl ester]
IC50 [1]: 9000 nM
IC50 [2]: 1000 to 10000 nM

C=CCC(C=C)OC(=O)C1=C(C)NC(=S)NC1 (centres unmarked) [Compound 55, 6-methyl-2-thioxo-1,2,3,4-tetrahydro-pyrimidine-5-carboxylic acid 1-vinyl-but-3-enyl ester]
IC50 [1]: 2500 nM
IC50 [2]: 1000 to 10000 nM

CC1=C(C(=O)OCC2COc3ccccc3O2)CNC(=S)N1 (centres unmarked) [Compound 195, 6-methyl-2-thioxo-1,2,3,4-tetrahydro-pyrimidine-5-carboxylic acid 2,3-dihydro-benzo[1,4]dioxin-2-ylmethyl ester]
IC50 [1]: 2000 nM
IC50 [2]: 1000 to 10000 nM

CC1=C(C(=O)OCCc2ccsc2)C(c2cnc[nH]2)NC(=S)N1 (centres unmarked) [50′, 4-(3H-imidazol-4-yl)-6-methyl-2-thioxo-1,2,3,4-tetrahydro-pyrimidine-5-carboxylic acid 2-thiophen-3-yl-ethyl ester]
IC50 [1]: > 100000 nM
IC50 [2]: > 20000 nM

CC1=C(C(=O)OCc2ccc(-c3cccs3)s2)C(CF)NC(=S)N1 (centres unmarked) [62′, 4-fluoromethyl-6-methyl-2-thioxo-1,2,3,4-tetrahydro-pyrimidine-5-carboxylic acid [2,2′]bithiophenyl-5-ylmethyl ester]
IC50 [1]: 2000 nM
IC50 [2]: 1000 to 10000 nM

COc1ccc(Cl)cc1COC(=O)C1=C(C)NC(=S)NC1CF (centres unmarked) [36′, 4-fluoromethyl-6-methyl-2-thioxo-1,2,3,4-tetrahydro-pyrimidine-5-carboxylic acid 5-chloro-2-methoxy-benzyl ester]
IC50 [1]: 1700 nM
IC50 [2]: 1000 to 10000 nM

CC1=C(C(=O)OCCCCCCCCc2ccccc2)CNC(=S)N1 [Compound 33, 6-methyl-2-thioxo-1,2,3,4-tetrahydro-pyrimidine-5-carboxylic acid 8-phenyl-octyl ester]
IC50 [1]: < 500 nM
IC50 [2]: < 1000 nM

CCOc1ccccc1COC(=O)C1=C(C)NC(=S)NC1 [Compound 66, 6-methyl-2-thioxo-1,2,3,4-tetrahydro-pyrimidine-5-carboxylic acid 2-ethoxy-benzyl ester]
IC50 [1]: 500 nM
IC50 [2]: < 1000 nM

From patent publication US20060116390A1, “Hepatitis c virus inhibitors” (priority 2003, published 2006)
